Reference: patent US20050074879A1, “Antisense oligonucleotide modulation of STAT3 expression” (priority 2000, published 2005)
Oligonucleotides are written 5' to 3', each unit as a sugar letter and its base; * is a phosphorothioate linkage, no mark a phosphodiester; rarer units and linkages stand in square brackets, end groups in braces. Plain capitals give the bases only. e = 2'-O-(2-methoxyethyl) (MOE); [5mC] = 5-methylcytosine; d = 2'-deoxy (DNA)

How the values were obtained:
Mouse STAT3 mRNA = test: Inhibition of mouse STAT3 mRNA expression in BCL1 cells (electroporation; RNase protection/Northern blot); type: cell-based; design: % mRNA INHIBITION: dose or concentration left out as unconfirmed; settings: BCL1 cells electroporated with oligonucleotide, RNA collected 24 hours later
Protocol: The B lymphoma cell line, BCL1 was obtained from ATCC (Rockville, Md.). BCL1 cells were cultured in RPMI 1640 medium.
BCL1 cells (5×10^6 cells in PBS) were transfected with oligonucleotides by electroporation, at 200V, […]. using a BTX Electro Cell Manipulator 600 (Genetronics, San Diego, Calif.). For an initial screen, BCL1 were electroporated with […] oligonucleotide and RNA collected 24 hours later. Controls without oligonucleotide were subjected to the same electroporation conditions.
Total cellular RNA was isolated using the RNEASY7 kit (Qiagen, Santa Clarita, Calif.). RNAse protection experiments were conducted using RIBOQUANT™ kits and template sets according to the manufacturer's instructions (Pharmingen, San Diego, Calif.). Northern blotting was performed as described in Chiang, M-Y. et al. (J. Biol. Chem., 1991, 266, 18162-18171), using a rat cDNA probe prepared by Xho I/Sal I restriction digest of psvsport-1 plasmid (ATCC, Rockville, Md.). mRNA levels were quantitated using a PhosphorImager (Molecular Dynamics, Sunnyvale, Calif.).

Mouse STAT3 protein = test: STAT3 protein levels in BCL1 cells by Western blot, dose response; type: cell-based
Protocol: ISIS 17152 (SEQ ID. NO. 99) was chosen for further study. The effect of this oligonucleotide on protein levels was determined by Western blot. ISIS 23177 (SEQ ID NO. 106), a 3 base mismatch, was used as a control. BCL1 cells were grown, treated and processed as described in Example 2.
Nuclear extracts from primary B cells and B lymphoma cell lines were prepared as described in Karras, J. G., et al. (J. Exp. Med., 1997, 185, 1035-1042).
Western blotting was performed as described in Karras, J. G. et al. (J. Immunol., 1996, 157, 2299). STAT1 and STAT3 antibodies were obtained from UBI (Lake Placid, N.Y.).

BCL1 cells = test: BCL1 cell proliferation, [3H]-thymidine incorporation; type: cell-based, mouse; settings: BCL1 cells; for % Cell Proliferation: 48 hours after electroporation
Protocol: The effect of ISIS 17152 (SEQ ID NO. 99) on BCL1 proliferation was determined. BCL1 cells contain constitutively active STAT3 which is thought to be responsible for their proliferation. BCL1 cells were grown, treated and processed as described in Example 2.
1×10^5 BCL1 cells were incubated in 96-well plates in […] complete RPMI following electroporation. Cultures were pulsed with […] of [^3H]-thymidine for the last 8 hours of culture and cells were harvested and analyzed for thymidine incorporation as described in Francis, D. A. et al. (Int. Immunol., 1995, 7, 151-161) 48 hours after electroporation.

[1] = test system: IgM secretion by BCL1 cells; test: BCL1 IgM secretion, ELISA; type: cell-based, mouse
Protocol: The effect of ISIS 17152 (SEQ ID. NO. 99) on IgM secretion levels was determined. STAT3 has been implicated in regulation of IgM expression (Faris, M., et al., Immunology, 1997, 90, 350-357). BCL1 cells were grown, treated and processed as described in Example 2.
1×10^6 BCL1 cells were incubated in 12-well plates in 2 mL complete RPMI following electroporation. Supernatant was replaced at 24 hour post electroporation with fresh medium. 48 hours later, supernatants were harvested, centrifuged to remove cells, and assayed for IgM content using the OPT-EIA™ ELISA kit (Pharmingen, San Diego, Calif.) and capture and detecting antibodies for mouse IgM (Southern Biotechnology, Birmingham, Ala.).

RANTES mRNA = test: Induction of chemokines in BCL1 cells, RNase protection assay: RANTES; type: cell-based, mouse; settings: CpG oligonucleotide induced
Protocol: (§1) The effect of ISIS 17152 (SEQ ID. NO. 99) on chemokine levels was determined. BCL1 cells were grown, treated and processed as described in Example 2. Chemokine gene expression was induced in BCL1 cells by addition of […] of a CpG-containing oligonucleotide to the media 16 hours following antisense oligonucleotide electroporation. CpG-containing oligonucleotides are immune-stimulatory (Krieg, A. M., et al., Nature, 1995, 374, 546-549). The levels of chemokines were measured eight hours later using RNase protection assay as described in Example 2 with a mouse chemokine template set, Mck-5 (Pharmingen, San Diego, Calif.).

MIP1a mRNA = test: Induction of chemokines in BCL1 cells, RNase protection assay: MIP1a; type: cell-based, mouse; settings: CpG oligonucleotide induced
Protocol: as §1

MIP1b mRNA = test: Induction of chemokines in BCL1 cells, RNase protection assay: MIP1b; type: cell-based, mouse; settings: CpG oligonucleotide induced
Protocol: as §1

Human STAT3 mRNA = test: Inhibition of human STAT3 mRNA expression in U266 cells, Northern blot; type: cell-based; settings: U266 cells, 2.5 μM oligonucleotide, electroporation, 24 hours
Protocol: U266 human myeloma cell lines (originally obtained from American Type Culture Collection) were maintained in RPMI 1640 medium supplemented with 10% fetal calf serum. Cells (15×10^6 cells in PBS) were transfected with oligonucleotides at 200V with a single 6-millisecond pulse using a BTX Electro Square Porator T820 (Genetronics, San Diego Calif.). The cells were incubated for 24 hours before RNA extraction.
Total cellular RNA was isolated using the Rneasy kit (Qiagen, Santa Clarita, Calif.). Northern blotting was perfomed on 15 μg of RNA using a cDNA probe prepared from MB-MDA 468 RNA by standard RT-PCR followed by a nested primer reaction. Signals were quantitated using a Molecular Dynamics Phosphorimager.
In order to examine the importance of STAT3 expression in multiple myeloma cells, a series of 20mer STAT3 antisense oligonucleotides were designed and synthesized, using phosphorothioate chemistry and incorporating 2′-O-methoxyethyl modifications to improve hybridization affinity and nuclease resistance.

“17152 (antisense eA*eA*eA*eA*eA*dG*dT*dG*dC*dC*dC*dA*dG*dA*dT*eT*eG*e[5mC]*e[5mC]*e[5mC]) [compound 17152]” was tested, and the “% mRNA INHIBITION” value (Mouse STAT3 mRNA) was 75%, the “% mRNA EXPRESSION” value (Mouse STAT3 mRNA; control 100%) was 25% and the “% protein Expression” value (Mouse STAT3 protein; dose 10 nM) was 41.7%. For the same substance, the “% protein Inhibition” value (Mouse STAT3 protein; dose 10 nM) was 58.3%, the “% protein Expression” value (Mouse STAT3 protein; dose 15 nM) was 42.5% and the “% protein Inhibition” value (Mouse STAT3 protein; dose 15 nM) was 57.5%. For the same substance, the “% protein Expression” value (Mouse STAT3 protein; dose 20 nM) was 26.5%, the “% protein Inhibition” value (Mouse STAT3 protein; dose 20 nM) was 73.5% and the “% Cell Inhibition” value (BCL1 cells; dose 10 nM) was 21.5%. For the same substance, the “% Cell Proliferation” value (BCL1 cells; dose 10 nM) was 78.5%, the “% Cell Inhibition” value (BCL1 cells; dose 15 nM) was 45.6% and the “% Cell Proliferation” value (BCL1 cells; dose 15 nM) was 54.4%. For the same substance, the “% Cell Inhibition” value (BCL1 cells; dose 20 nM) was 49.8%, the “% Cell Proliferation” value (BCL1 cells; dose 20 nM) was 50.2% and the “% IgM Expression” value ([1]; dose 5 nM) was 34.2%. The “% IgM Inhibition” value ([1]; dose 5 nM) was 65.8%, the “% IgM Expression” value ([1]; dose 15 nM) was 23.1% and the “% IgM Inhibition” value ([1]; dose 15 nM) was 76.9%. The “% RANTES mRNA” value (RANTES mRNA; dose 5 nM, control 100%) was 236%, the “% RANTES mRNA” value (RANTES mRNA; dose 10 nM) was 266% and the “% RANTES mRNA” value (RANTES mRNA; dose 20 nM) was 257%. The “% MIP1a mRNA” value (MIP1a mRNA; dose 5 nM) was 201%, the “% MIP1a mRNA” value (MIP1a mRNA; dose 10 nM) was 258% and the “% MIP1a mRNA” value (MIP1a mRNA; dose 20 nM) was 254%. The “% MIP1b mRNA” value (MIP1b mRNA; dose 5 nM) was 133%, the “% MIP1b mRNA” value (MIP1b mRNA; dose 10 nM) was 150% and the “% MIP1b mRNA” value (MIP1b mRNA; dose 20 nM) was 159%. For the same substance, the “% mRNA INHIBITION” value (Human STAT3 mRNA) was 17.5% and the “% mRNA EXPRESSION” value (Human STAT3 mRNA; percent of control) was 82.5%.
“23177 (antisense eA*eA*eA*eA*eA*dG*dT*dC*dC*dG*dC*dT*dG*dA*dT*eT*eG*e[5mC]*e[5mC]*e[5mC]) [compound 23177]” was tested, and the “% protein Expression” value (Mouse STAT3 protein; dose 10 nM) was 75.1%, the “% protein Inhibition” value (Mouse STAT3 protein; dose 10 nM) was 24.9% and the “% protein Expression” value (Mouse STAT3 protein; dose 15 nM) was 67.6%. For the same substance, the “% protein Inhibition” value (Mouse STAT3 protein; dose 15 nM) was 32.4%, the “% protein Expression” value (Mouse STAT3 protein; dose 20 nM) was 62.6% and the “% protein Inhibition” value (Mouse STAT3 protein; dose 20 nM) was 37.4%. The “% Cell Proliferation” value (BCL1 cells; dose 10 nM) was 117.0%, the “% Cell Inhibition” value (BCL1 cells; dose 15 nM) was 0.3% and the “% Cell Proliferation” value (BCL1 cells; dose 15 nM) was 99.7%. For the same substance, the “% Cell Proliferation” value (BCL1 cells; dose 20 nM) was 107.0%, the “% IgM Expression” value ([1]; dose 5 nM) was 110.0% and the “% IgM Expression” value ([1]; dose 15 nM) was 80.8%. The “% IgM Inhibition” value ([1]; dose 15 nM) was 19.2%.
With “23178 (antisense eA*eA*eA*eA*eA*dC*dT*dC*dC*dG*dC*dT*dG*dA*dA*eT*eG*e[5mC]*e[5mC]*e[5mC]) [compound 23178]” the “% RANTES mRNA” value (RANTES mRNA; dose 5 nM, control 100%) was 96%, the “% RANTES mRNA” value (RANTES mRNA; dose 10 nM) was 70.2% and the “% RANTES mRNA” value (RANTES mRNA; dose 20 nM) was 56%. For the same substance, the “% MIP1a mRNA” value (MIP1a mRNA; dose 5 nM) was 123%, the “% MIP1a mRNA” value (MIP1a mRNA; dose 10 nM) was 116% and the “% MIP1a mRNA” value (MIP1a mRNA; dose 20 nM) was 106%. The “% MIP1b mRNA” value (MIP1b mRNA; dose 5 nM) was 96.5%, the “% MIP1b mRNA” value (MIP1b mRNA; dose 10 nM) was 87.1% and the “% MIP1b mRNA” value (MIP1b mRNA; dose 20 nM) was 73.3%.
